The values below come from EPA's ToxRefDB 2.

Data set [1] relates to rat. Particulars: Developmental neurotoxicity study, sprague dawley, Oral, Gavage/Intubation, dose end: 80 PND, group: cannot be grouped.
The subject of data set [2] is rat. The conditions noted are these: Chronic toxicity; fischer; Oral; Feed; dose end: 130 week; group: systemic; systemic / pathology microscopic / liver / hypertrophy + systemic / pathology microscopic / liver / necrosis.
For data set [3], the system named is mouse. Particulars: Chronic toxicity, [Not Reported], Oral, Feed, dose end: 104 week, group: systemic.
Data set [4] concerns rat. Particulars: Prenatal developmental toxicity study, other, Oral, Gavage/Intubation, dose end: 15 GD.
Data set [5] concerns rat. Particulars: Multigenerational reproductive toxicity study, wistar, Oral, Feed, dose end: 2 generation.
Data set [6] has as its system rat. The conditions noted are these: Combined chronic toxicity/carcinogenicity, wistar, Oral, Feed, dose end: 24 month, group: systemic.
Another data set has as its system rabbit. The conditions noted are these: Prenatal developmental toxicity study, chinchilla, Oral, Gavage/Intubation, dose end: 18 GD.
In data set [7] the test system is dog. Particulars: Chronic toxicity; beagle; Oral; Feed; dose end: 52 week; group: systemic; systemic / clinical chemistry / cholesterol / cholesterol + systemic / clinical chemistry / cytochrome p450, nos / cytochrome p450, nos.
Data set [8] deals with mouse. Particulars: Carcinogenicity, b6c3f1, Oral, Feed, dose end: 24 month, group: systemic.
Data set [9] has as its system dog. The conditions noted are these: Subchronic oral toxicity in nonrodent, beagle, Feed, dose end: 14 week, group: systemic, systemic / organ weight / liver / absolute + systemic / organ weight / liver / relative to body weight.
Data set [10] relates to rat. The conditions noted are these: Subchronic oral toxicity in rodents, sprague dawley, Feed, dose end: 13 week, group: systemic, systemic / organ weight / uterus / relative to body weight.
The subject of data set [11] is dog. The conditions noted are these: Other (NonGuideline or Guideline Not Listed); beagle; Oral; Capsule; dose end: 3 day; group: cannot be grouped; systemic / in life observation / clinical signs / emesis.
In data set [12] the test system is dog. The conditions noted are these: Sub-acute repeat dose toxicity, beagle, Oral, Capsule, dose end: 5 week, group: systemic.
The test system of data set [13] is dog. Particulars: Sub-acute repeat dose toxicity; beagle; Oral; Gavage/Intubation; dose end: 29 day; group: systemic; systemic / in life observation / clinical signs / defecation (diarrhea) + systemic / in life observation / clinical signs / emesis + ….
Data set [14] deals with rat. The conditions noted are these: Sub-acute repeat dose toxicity, sprague dawley, Oral, Gavage/Intubation, dose end: 13 day, group: systemic.
Data set [15] has as its system dog. The conditions noted are these: Sub-acute repeat dose toxicity, beagle, Oral, Gavage/Intubation, dose end: 7 day, group: systemic.
Data set [16] deals with rat. Particulars: Sub-acute repeat dose toxicity, sprague dawley, Oral, Gavage/Intubation, dose end: 29 day, group: systemic.
The subject of data set [17] is dog. Particulars: Sub-acute repeat dose toxicity, beagle, Oral, Gavage/Intubation, dose end: 10 day, group: systemic.
For data set [18], the system named is rat. The conditions noted are these: Sub-acute repeat dose toxicity; Oral; Gavage/Intubation; dose end: 10 day; group: systemic; systemic / in life observation / clinical signs / compulsive biting or licking + systemic / in life observation / clinical signs / ….
Data set [19] deals with dog. Particulars: Sub-acute repeat dose toxicity, beagle, Oral, Gavage/Intubation, dose end: 1 month, group: systemic.
[20] abbreviates: systemic / in life observation / body weight / body weight + reproductive / reproductive performance / mating / mating.
Setting [21] is: systemic / in life observation / body weight / body weight + reproductive / reproductive performance / mating / mating + systemic / clinical….
Where [22] appears, read: systemic / in life observation / food consumption / food consumption + systemic / organ weight / liver / absolute + systemic / organ weight….
Where [23] appears, read: group: developmental, developmental / developmental malformation / bone / wavy.
[24] abbreviates: group: maternal, systemic / in life observation / body weight / body weight gain.
Setting [25] is: group: maternal, systemic / in life observation / body weight / body weight gain + systemic / in life observation / food consumption / food consumption.
Setting [26] is: group: offspring, systemic / in life observation / body weight / offspring (pup) weight.
Setting [27] is: group: parental, systemic / in life observation / body weight / body weight gain.
The mark [28] stands for this setting: systemic / pathology microscopic / thyroid gland / mineralization.
The mark [29] stands for this setting: systemic / pathology microscopic / thyroid gland / mineralization + systemic / in life observation / body weight / body weight + systemic / ….
Setting [30] is: group: developmental, developmental / developmental malformation / bone / absent + developmental / developmental malformation / bone / fused + developmental / ….
Setting [31] is: group: maternal, systemic / in life observation / body weight / body weight gain + reproductive / reproductive performance / aborted / aborted + reproductive….
[32] abbreviates: systemic / in life observation / body weight / body weight + systemic / in life observation / body weight / body weight gain + systemic / in….
Setting [33] is: systemic / clinical chemistry / cholesterol / cholesterol + systemic / hematology / erythrocyte (rbc) count differential / erythrocyte (rbc….
Setting [34] is: systemic / pathology microscopic / testes / degeneration.
The mark [35] stands for this setting: systemic / in life observation / body weight / body weight + systemic / in life observation / clinical signs / lacrimation + systemic / in ….
[36] abbreviates: systemic / organ weight / kidney / absolute + systemic / organ weight / liver / absolute + systemic / organ weight / spleen / absolute + ….
[37] abbreviates: systemic / in life observation / body weight / body weight + systemic / in life observation / food consumption / food consumption + systemic….
[38] abbreviates: systemic / in life observation / clinical signs / emesis.
Setting [39] is: systemic / in life observation / clinical signs / salivation + systemic / organ weight / liver / absolute + systemic / in life observation….
Setting [40] is: systemic / in life observation / body weight / body weight + systemic / in life observation / clinical signs / altered breathing rate + ….
Setting [41] is: systemic / in life observation / clinical signs / salivation + systemic / in life observation / clinical signs / emesis.
[42] abbreviates: systemic / in life observation / clinical signs / defecation (diarrhea) + systemic / in life observation / clinical signs / feces, ….
Setting [43] is: systemic / in life observation / clinical signs / feces, discoloration.

For orientation: LOAEL means the lowest dose or exposure tested at which an adverse effect was seen. As usually defined, the NOAEL is the highest tested level that showed no adverse finding. Take `ClC1=C(Cl)C2(Cl)C3C(Cl)C(Cl)CC3C1(Cl)C2(Cl)Cl` (configuration not stated) [Chlordane, technical grade]: the figures for the LEL with rat [1] (setting [20]), with rat [2] and in the data set with mouse [3] (setting [22]) were 0.1 mg/kg/day, 0.045 mg/kg/day and 0.15 mg/kg/day, respectively. Also, the NEL with rat [1] (setting [20]) is under 0.1 mg/kg/day; in the data set on rat [2] it was under 0.045 mg/kg/day; in the data set on mouse [3] (setting [22]), under 0.15 mg/kg/day. Besides, the LOAEL with rat [1] (setting [21]) was over 5 mg/kg/day; with rat [2], 0.045 mg/kg/day; in the data set on mouse [3] (systemic / pathology microscopic / liver / degeneration + systemic / pathology microscopic / liver / necrosis), 0.75 mg/kg/day. Moreover, the NOAEL in the data set with rat [1] (setting [21]) is at least 5 mg/kg/day; in the data set with rat [2], under 0.045 mg/kg/day; in the data set with mouse [3] (systemic / pathology microscopic / liver / degeneration + systemic / in life observation / food consumption / food consumption + systemic / …) it was 0.15 mg/kg/day.

In the case of `O=[N+]([O-])/N=C1\NCCN1Cc1ccc(Cl)nc1` [Imidacloprid], the LEL in the data set on rat [4] (setting [23]) turned out to be 100 mg/kg/day; with rat [4] (setting [24]), 30 mg/kg/day; in the data set with rat [5] (setting [26]), 47.3 mg/kg/day; in the data set with rat [5] (setting [27]), 52.3 mg/kg/day; in the data set with rat [6] (setting [28]), 16.9 mg/kg/day; with rabbit (setting [30]), 72 mg/kg/day. For the same molecule, the results for the LEL in the data set with rabbit (setting [24]), in the data set on dog [7] and in the data set on mouse [8] (systemic / in life observation / body weight / body weight gain) were 24 mg/kg/day, 72 mg/kg/day and 208 mg/kg/day, respectively. The lowest-observed-adverse-effect level (LOAEL) in the data set on rat [4] (setting [23]) is 100 mg/kg/day; in the data set on rat [4] (setting [24]) it was 30 mg/kg/day; in the data set on rat [5] (setting [26]), 47.3 mg/kg/day; in the data set with rat [5] (setting [27]), 52.3 mg/kg/day; in the data set on rat [6] (setting [28]) it was 16.9 mg/kg/day; with rabbit (setting [30]), 72 mg/kg/day. The LOAEL is 72 mg/kg/day in the data set with rabbit (group: maternal, systemic / in life observation / body weight / body weight gain + reproductive / reproductive performance / postimplantation loss / …); over 72 mg/kg/day in the data set with dog [7]; 414 mg/kg/day in the data set with mouse [8] (setting [32]). Also, the NEL with rat [4] (setting [23]) worked out at 30 mg/kg/day; in the data set on rat [4] (setting [25]), 10 mg/kg/day; in the data set on rat [5] (setting [26]) it was 16.5 mg/kg/day; in the data set on rat [5] (setting [27]), 18.9 mg/kg/day; with rat [6] (setting [29]), 5.7 mg/kg/day; in the data set with rabbit (setting [30]) it was 24 mg/kg/day. Also, the NEL was found to be 8 mg/kg/day with rabbit (setting [31]), 15 mg/kg/day in the data set on dog [7] and 66 mg/kg/day with mouse [8] (setting [32]). Further, the NOAEL in the data set on rat [4] (setting [23]) is 30 mg/kg/day; in the data set on rat [4] (setting [25]) it was 10 mg/kg/day; in the data set on rat [5] (setting [26]), 16.5 mg/kg/day; with rat [5] (setting [27]), 18.9 mg/kg/day; in the data set on rat [6] (setting [29]), 5.7 mg/kg/day; in the data set with rabbit (setting [30]), 24 mg/kg/day. The no-observed-adverse-effect level (NOAEL) in the data set with rabbit (setting [31]) is 24 mg/kg/day; in the data set on dog [7], at least 72 mg/kg/day; in the data set on mouse [8] (setting [32]) it was 208 mg/kg/day.

Consider `CCN(CC)C(=O)C(C)Oc1cccc2ccccc12` (configuration not stated) [Napropamide], for which, in the data set with dog [9], the LEL was determined as 100 mg/kg/day, the LOAEL was 100 mg/kg/day, the NEL was 40 mg/kg/day and the NOAEL turned out to be 40 mg/kg/day. In the data set with rat [10], this molecule returned an LEL of 50 mg/kg/day, an LOAEL of 50 mg/kg/day, an NEL of 25 mg/kg/day and an NOAEL of 25 mg/kg/day.

In the data set with dog [11], `NC(=O)c1nc(-c2cccc(-c3cc(F)ccc3OCC(F)(F)C(F)(F)F)c2)n[n-]1.O.[K+]` [MK-274] came in with an LEL of 240 mg/kg/day, an LOAEL of over 400 mg/kg/day, an NEL of under 240 mg/kg/day and an NOAEL of at least 400 mg/kg/day. Further, in the data set with dog [12] (setting [33]), the LOAEL was over 450 mg/kg/day and the NOAEL was at least 450 mg/kg/day. In the data set on dog [12] (setting [34]), the LEL turned out to be 10 mg/kg/day and the NEL was under 10 mg/kg/day.

Consider `CN[C@H]1CC[C@@H](c2ccc(Cl)c(Cl)c2)c2ccc(S(N)(=O)=O)cc21`, for which the LEL was found to be 5 mg/kg/day with dog [13], 40 mg/kg/day with rat [14] (setting [36]), 40 mg/kg/day in the data set on dog [15] (setting [38]) and 60 mg/kg/day in the data set with rat [16] (setting [39]). Besides, the LOAEL was over 60 mg/kg/day with dog [13], over 320 mg/kg/day in the data set on rat [14] (setting [35]), over 160 mg/kg/day in the data set with dog [15] (setting [37]) and over 60 mg/kg/day with rat [16] (setting [39]). Besides, the NEL is under 5 mg/kg/day in the data set with dog [13], under 40 mg/kg/day with rat [14] (setting [36]), 20 mg/kg/day in the data set with dog [15] (setting [38]) and 20 mg/kg/day with rat [16] (systemic / in life observation / clinical signs / salivation + systemic / organ weight / liver / absolute). In addition, the NOAEL with dog [13] is at least 60 mg/kg/day; with rat [14] (setting [35]) it was at least 320 mg/kg/day; in the data set with dog [15] (setting [37]), at least 160 mg/kg/day; in the data set on rat [16] (setting [39]) it was at least 60 mg/kg/day.

With `CC(N)c1cc(F)ccc1Oc1ccc(Cl)c(Cl)c1` (configuration not stated), in the data set on dog [17] (setting [40]), the LOAEL is over 100 mg/kg/day and the NOAEL was at least 100 mg/kg/day. For the same molecule, in the data set on dog [17] (setting [41]), the LEL is 3 mg/kg/day and the NEL is under 3 mg/kg/day. Besides, in the data set with rat [18], the LEL stood at 3 mg/kg/day, the LOAEL is over 150 mg/kg/day, the NEL is under 3 mg/kg/day and the NOAEL was at least 150 mg/kg/day.

With `COc1ccc(C(=O)Nc2nc3ccccc3c(NCc3ccccc3)c2C#N)cc1`, in the data set with dog [19] (setting [42]), the LOAEL was found to be 1500 mg/kg/day and the no-observed-adverse-effect level (NOAEL) turned out to be 750 mg/kg/day. In the data set with dog [19] (setting [43]), the LEL was found to be 300 mg/kg/day and the NEL is under 300 mg/kg/day.
